Data as given in patent US20260315464A1, “COMPOSITIONS, METHODS, AND SYSTEMS FOR MODULATING SPLICING OF MSH3” (REVIR THERAPEUTICS, INC., priority 2023, published 2026).

Test system: MSH3
Assay: QPCR assay for levels of MSH3 upon compound treatment in HEK293T or AD293 cells (fold-change of MSH3 transcript, EC50 of MSH3 downregulation; total MSH3 exons 13/14, exons 20/21; Table 8)
Assay type: cell-based
Details: for mrna remaining at 1 µM / mrna remaining at 10 µM: Homo sapiens, fold-change of the MSH3 transcript, normalized to GAPDH; for mrna remaining at 1 µM: 1 μM compound; for mrna remaining at 10 µM: 10 μM compound; for EC50: EC50 of MSH3 downregulation, XtalPi
In short: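 HEK293T or AD293 cells were treated at 1 μM and […]; RNA-to-cDNA qPCR used TaqMan assays for total MSH3 (exons 13/14, exons 20/21) and poison-exon junctions exon 13/PE14A and exon 20/PE21A. Transcript levels were normalized to GAPDH.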

Cc1nn(C)nc1-c1cnc2c(c1)C(=O)N(c1ccc(N3CCC4(CCCN4)C3)nn1)C2 (centres unmarked) [Compound 566, 6-(6-(1,7-diazaspiro[4.4]nonan-7-yl)pyridazin-3-yl)-3-(2,5-dimethyl-2H-1,2,3-triazol-4-yl)-6,7-dihydro-5H-pyrrolo[3,4-b]pyridin-5-one]
mrna remaining at 1 µM: 133% | mrna remaining at 10 µM: 60%

Cn1nc(Cl)c(-c2cc(F)c3c(c2)C(=O)N(c2ccc(N4CCN[C@@H](C(C)(C)C)C4)nn2)C3)n1 [Compound 637, (S)-2-(6-(3-(tert-butyl)piperazin-1-yl)pyridazin-3-yl)-6-(5-chloro-2-methyl-2H-1,2,3-triazol-4-yl)-4-fluoroisoindolin-1-one]
mrna remaining at 1 µM: 150% | mrna remaining at 10 µM: 31%

COc1cc(-c2nn(C)nc2C)cc2c1CN(c1ccc(N(C)[C@H]3C[C@]4(C)CC[C@](C)(C3)N4)nn1)C2=O [Compound 687, 6-(2,5-dimethyl-2H-1,2,3-triazol-4-yl)-2-(6-(((1R,3s,5S)-1,5-dimethyl-8-azabicyclo[3.2.1]octan-3-yl)(methyl)amino)pyridazin-3-yl)-4-methoxyisoindolin-1-one]
mrna remaining at 1 µM: 110% | mrna remaining at 10 µM: 19%

Cc1nn(C)cc1-c1cc(F)c2c(c1)C(=O)N(c1ccc(O[C@H]3CC(C)(C)NC(C)(C)[C@H]3F)nn1)C2 [Compound 280, 6-(1,3-dimethyl-1H-pyrazol-4-yl)-4-fluoro-2-(6-(((3R,4S)-3-fluoro-2,2,6,6-tetramethylpiperidin-4-yl)oxy)pyridazin-3-yl)isoindolin-1-one]
mrna remaining at 1 µM: 99% | mrna remaining at 10 µM: 66%

Cc1nn(C)cc1-c1cnc2c(c1)C(=O)N(c1ccc(O[C@@H]3C[C@@]4(C)CC[C@](C)(N4)[C@H]3F)nn1)C2 [Compound 215, 3-(1,3-dimethyl-1H-pyrazol-4-yl)-6-(6-(((1S,2R,3R,5R)-2-fluoro-1,5-dimethyl-8-azabicyclo[3.2.1]octan-3-yl)oxy)pyridazin-3-yl)-6,7-dihydro-5H-pyrrolo[3,4-b]pyridin-5-one]
mrna remaining at 1 µM: 97% | mrna remaining at 10 µM: 76%

Cc1nn(C)nc1-c1cc(F)c2c(c1)C(=O)N(c1ccc(N(C)[C@H]3C[C@]4(C)CC[C@](C)(C3)N4)nn1)C2 [Compound 294, 6-(2,5-dimethyl-2H-1,2,3-triazol-4-yl)-2-(6-(((1R,3s,5S)-1,5-dimethyl-8-azabicyclo[3.2.1]octan-3-yl)(methyl)amino)pyridazin-3-yl)-4-fluoroisoindolin-1-one]
EC50: 480 nM | mrna remaining at 1 µM: 27% | mrna remaining at 10 µM: 12%

Cn1cc(-c2cnc3c(c2)C(=O)N(c2ccc(O[C@H]4C[C@]5(C)CC[C@](C)(C4)N5)nn2)C3)c(C(F)(F)F)n1 [Compound 201, 6-(6-(((1R,3s,5S)-1,5-dimethyl-8-azabicyclo[3.2.1]octan-3-yl)oxy)pyridazin-3-yl)-3-(1-methyl-3-(trifluoromethyl)-1H-pyrazol-4-yl)-6,7-dihydro-5H-pyrrolo[3,4-b]pyridin-5-one]
mrna remaining at 1 µM: 90% | mrna remaining at 10 µM: 91%

Cc1nn(C)nc1-c1cnc2c(c1)C(=O)N(c1ccc(N3CCC[C@@H](NC(C)(C)C)C3)nn1)C2 [Compound 616, (R)-6-(6-(3-(tert-butylamino)piperidin-1-yl)pyridazin-3-yl)-3-(2,5-dimethyl-2H-1,2,3-triazol-4-yl)-6,7-dihydro-5H-pyrrolo[3,4-b]pyridin-5-one]
mrna remaining at 1 µM: 100% | mrna remaining at 10 µM: 67%

Cn1nc(Cl)c(-c2cnc3c(c2)C(=O)N(c2ccc(O[C@H]4CCC(C)(C)NC(C)(C)C4)nn2)C3)n1 [Compound 607, (S)-3-(5-chloro-2-methyl-2H-1,2,3-triazol-4-yl)-6-(6-((2,2,7,7-tetramethylazepan-4-yl)oxy)pyridazin-3-yl)-6,7-dihydro-5H-pyrrolo[3,4-b]pyridin-5-one]
mrna remaining at 1 µM: 72% | mrna remaining at 10 µM: 9%

Cc1nn(C)nc1-c1cc(F)c2c(c1)C(=O)N(c1ccc(N3CC4(CNC4)C3)nn1)C2 [Compound 666, 2-(6-(2,6-diazaspiro[3.3]heptan-2-yl)pyridazin-3-yl)-6-(2,5-dimethyl-2H-1,2,3-triazol-4-yl)-4-fluoroisoindolin-1-one]
mrna remaining at 1 µM: 97% | mrna remaining at 10 µM: 59%

Cc1nn(C)cc1-c1cc2c(cn1)CN(c1cnc(N(C)[C@H]3C[C@]4(C)CC[C@](C)(C3)N4)nn1)C2=O [Compound 55, 6-(1,3-dimethyl-1H-pyrazol-4-yl)-2-(3-(((1R,3s,5S)-1,5-dimethyl-8-azabicyclo[3.2.1]octan-3-yl)(methyl)amino)-1,2,4-triazin-6-yl)-2,3-dihydro-1H-pyrrolo[3,4-c]pyridin-1-one]
mrna remaining at 1 µM: 56% | mrna remaining at 10 µM: 20%

Cn1ncc(-c2cnc3c(c2)C(=O)N(c2ccc(OC4CCC(C)(C)NC(C)(C)C4)nn2)C3)n1 (centres unmarked) [Compound 485, 3-(2-methyl-2H-1,2,3-triazol-4-yl)-6-(6-((2,2,7,7-tetramethylazepan-4-yl)oxy)pyridazin-3-yl)-6,7-dihydro-5H-pyrrolo[3,4-b]pyridin-5-one]
mrna remaining at 1 µM: 88% | mrna remaining at 10 µM: 40%

Cn1nc(Cl)c(-c2cc(F)c3c(c2)C(=O)N(c2ccc(N4CC5CC(C4)N5)nn2)C3)n1 [Compound 655, 2-(6-(3,6-diazabicyclo[3.1.1]heptan-3-yl)pyridazin-3-yl)-6-(5-chloro-2-methyl-2H-1,2,3-triazol-4-yl)-4-fluoroisoindolin-1-one]
mrna remaining at 1 µM: 115% | mrna remaining at 10 µM: 48%

Cc1nn(C)cc1-c1cc2c(cn1)CN(c1ccc(OC3CCC(C)(C)NC(C)(C)C3)nn1)C2=O (centres unmarked) [Compound 457, 6-(1,3-dimethyl-1H-pyrazol-4-yl)-2-(6-((2,2,7,7-tetramethylazepan-4-yl)oxy)pyridazin-3-yl)-2,3-dihydro-1H-pyrrolo[3,4-c]pyridin-1-one]
mrna remaining at 1 µM: 85% | mrna remaining at 10 µM: 70%

Cc1nn(C)cc1-c1cc2c(cn1)CN(c1ccc(O[C@H]3C[C@]4(C)CC[C@](C)(C3)N4C)nn1)C2=O [Compound 94, 6-(1,3-dimethyl-1H-pyrazol-4-yl)-2-(6-(((1R,3s,5S)-1,5,8-trimethyl-8-azabicyclo[3.2.1]octan-3-yl)oxy)pyridazin-3-yl)-2,3-dihydro-1H-pyrrolo[3,4-c]pyridin-1-one]
mrna remaining at 1 µM: 106% | mrna remaining at 10 µM: 79%

CC[C@]12CC[C@](C)(C[C@@H](Oc3ccc(N4Cc5cnc(-c6cn(C)nc6C)cc5C4=O)nn3)C1)N2 [Compound 98, 6-(1,3-dimethyl-1H-pyrazol-4-yl)-2-(6-(((1S,3R,5R)-1-ethyl-5-methyl-8-azabicyclo[3.2.1]octan-3-yl)oxy)pyridazin-3-yl)-2,3-dihydro-1H-pyrrolo[3,4-c]pyridin-1-one]
mrna remaining at 1 µM: 83% | mrna remaining at 10 µM: 25%

CN(c1ccc(N2Cc3ncc(-c4nn(C)nc4Cl)cc3C2=O)nn1)C1CC(C)(C)NC2(CCC2)C1 (centres unmarked) [Compound 621, 3-(5-chloro-2-methyl-2H-1,2,3-triazol-4-yl)-6-(6-((6,6-dimethyl-5-azaspiro[3.5]nonan-8-yl)(methyl)amino)pyridazin-3-yl)-6,7-dihydro-5H-pyrrolo[3,4-b]pyridin-5-one]
EC50: 229 nM

Cc1nn(C)nc1-c1cnc2c(c1)C(=O)N(c1ccc(N3CC4CC3CN4)nn1)C2 (centres unmarked) [Compound 560, 6-(6-(2,5-diazabicyclo[2.2.1]heptan-2-yl)pyridazin-3-yl)-3-(2,5-dimethyl-2H-1,2,3-triazol-4-yl)-6,7-dihydro-5H-pyrrolo[3,4-b]pyridin-5-one]
mrna remaining at 1 µM: 81% | mrna remaining at 10 µM: 29%

CN(c1ccc(N2Cc3c(C#N)cc(-c4nn(C)nc4Cl)cc3C2=O)nn1)C1CC(C)(C)NC(C)(C)C1 [Compound 682, 6-(5-chloro-2-methyl-2H-1,2,3-triazol-4-yl)-2-(6-(methyl(2,2,6,6-tetramethylpiperidin-4-yl)amino)pyridazin-3-yl)-1-oxoisoindoline-4-carbonitrile]
mrna remaining at 1 µM: 77% | mrna remaining at 10 µM: 17%

Cn1nc(Cl)c(-c2cc(F)c3c(c2)C(=O)N(c2ccc(N4CCNC(C)(C)C4)nn2)C3)n1 [Compound 642, 6-(5-chloro-2-methyl-2H-1,2,3-triazol-4-yl)-2-(6-(3,3-dimethylpiperazin-1-yl)pyridazin-3-yl)-4-fluoroisoindolin-1-one]
mrna remaining at 1 µM: 91% | mrna remaining at 10 µM: 21%

Cn1cc(-c2cnc3c(c2)C(=O)N(c2ccc(OC4CC(C)(C)NC(C)(C)C4)nn2)C3)c(Cl)n1 [Compound 608, 3-(3-chloro-1-methyl-1H-pyrazol-4-yl)-6-(6-((2,2,6,6-tetramethylpiperidin-4-yl)oxy)pyridazin-3-yl)-6,7-dihydro-5H-pyrrolo[3,4-b]pyridin-5-one]
mrna remaining at 1 µM: 86% | mrna remaining at 10 µM: 20%

Cc1nn(C)cc1-c1cc(F)c2c(c1)C(=O)N(c1ccc(OC3CC(C)(C)NC(C)(C)C3)nn1)C2 [Compound 276, 6-(1,3-dimethyl-1H-pyrazol-4-yl)-4-fluoro-2-(6-((2,2,6,6-tetramethylpiperidin-4-yl)oxy)pyridazin-3-yl)isoindolin-1-one]
mrna remaining at 1 µM: 103% | mrna remaining at 10 µM: 38%

Cc1nn(C)cc1-c1cc2c(cn1)CN(c1ccc(OC3CC(C)(C)NC4(CCC4)C3)nn1)C2=O (centres unmarked) [Compound 593, 6-(1,3-dimethyl-1H-pyrazol-4-yl)-2-(6-((6,6-dimethyl-5-azaspiro[3.5]nonan-8-yl)oxy)pyridazin-3-yl)-2,3-dihydro-1H-pyrrolo[3,4-c]pyridin-1-one]
mrna remaining at 1 µM: 105% | mrna remaining at 10 µM: 34%

Cc1nn(C)cc1-c1cc(F)c2c(c1)C(=O)N(c1ccc(N3CCN[C@@H](C(C)C)C3)nn1)C2 [Compound 296, (S)-6-(1,3-dimethyl-1H-pyrazol-4-yl)-4-fluoro-2-(6-(3-isopropylpiperazin-1-yl)pyridazin-3-yl)isoindolin-1-one]
mrna remaining at 1 µM: 54%
